According to patent US7138361B2, “Herbicidal heterocycles” (E. I. du Pont de Nemours and Company, priority 2000, dated 2006):

What was measured:
Assay type in all cases: in vivo
[1] = system: barnyardgrass (Echinochloa crus-galli); assay: Test B postemergence; conditions: 13 to 15 days
Procedure, shortened: (§1)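 Ratings on a 0 to 100 visual scale (100 complete control) compare treated plants with controls 13 to 15 days after application. Treatments were pre- or postemergence sprays of compound in non-phytotoxic solvent with surfactant.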

[2] = system: crabgrass (Digitaria sanguinalis); assay: Test B postemergence; conditions: 13 to 15 days
Procedure, shortened: as §1

[3] = system: blackgrass (Alopecurus myosuroides); assay: Test B postemergence; conditions: 13 to 15 days
Procedure, shortened: as §1

[4] = system: morning glory (Ipomoea hederacea); assay: Test B postemergence; conditions: 13 to 15 days
Procedure, shortened: as §1

[5] = system: giant foxtail (Setaria faberii); assay: Test B postemergence; conditions: 13 to 15 days
Procedure, shortened: as §1

[6] = system: velvetleaf (Abutilon theophrasti); assay: Test B postemergence; conditions: 13 to 15 days
Procedure, shortened: as §1

[7] = system: Surinam grass (Brachiaria decumbens); assay: Test B postemergence; conditions: 13 to 15 days
Procedure, shortened: as §1

[8] = system: pigweed (Amaranthus retroflexus); assay: Test B postemergence; conditions: 13 to 15 days
Procedure, shortened: as §1

[9] = system: lambsquarters (Chenopodium album); assay: Test B postemergence; conditions: 13 to 15 days
Procedure, shortened: as §1

corn (Zea mays) [10] = assay: Test B postemergence; conditions: 13 to 15 days
Procedure, shortened: as §1

wild oat (Avena fatua) = assay: Test B postemergence; conditions: 13 to 15 days
Procedure, shortened: as §1

[11] = system: wheat (Triticum aestivum); assay: Test B postemergence; conditions: 13 to 15 days
Procedure, shortened: as §1

[12] = system: cocklebur (Xanthium strumarium); assay: Test B postemergence; conditions: 13 to 15 days
Procedure, shortened: as §1

[13] = system: barnyardgrass (Echinochloa crus-galli); assay: Test B preemergence
Procedure, shortened: as §1

[14] = system: crabgrass (Digitaria sanguinalis); assay: Test B preemergence
Procedure, shortened: as §1

[15] = system: morning glory (Ipomoea hederacea); assay: Test B preemergence
Procedure, shortened: as §1

[16] = system: giant foxtail (Setaria faberii); assay: Test B preemergence
Procedure, shortened: as §1

[17] = system: velvetleaf (Abutilon theophrasti); assay: Test B preemergence
Procedure, shortened: as §1

[18] = system: Surinam grass (Brachiaria decumbens); assay: Test B preemergence
Procedure, shortened: as §1

rice (Oryza saliva) [19] = assay: Test B preemergence
Procedure, shortened: as §1

[20] = system: pigweed (Amaranthus retroflexus); assay: Test B preemergence
Procedure, shortened: as §1

[21] = system: lambsquarters (Chenopodium album); assay: Test B preemergence
Procedure, shortened: as §1

corn (Zea mays) [22] = assay: Test B preemergence
Procedure, shortened: as §1

[23] = system: cocklebur (Xanthium strumarium); assay: Test B preemergence
Procedure, shortened: as §1

[24] = system: barnyardgrass (Echinochloa crus-galli); assay: Test B flooded paddy test; conditions: Rate 1000 g/ha, scale of 0 to 100 where 0 is no effect and 100 is complete control, visually evaluated after 13 to 15 days
Procedure, shortened: (§2)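 Treatment: formulated chemical applied to flooded paddy plants at 2-leaf stage. Hold: greenhouse, 13–15 days. Scoring: visual comparison to controls, 0 (no effect) to 100 (complete control).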

[25] = system: duck salad (Heteranthera limosa); assay: Test B flooded paddy test; conditions: Rate 1000 g/ha, scale of 0 to 100 where 0 is no effect and 100 is complete control, visually evaluated after 13 to 15 days
Procedure, shortened: as §2

[26] = system: smallflower flatsedge (Cyperus difformis); assay: Test B flooded paddy test; conditions: Rate 1000 g/ha, scale of 0 to 100 where 0 is no effect and 100 is complete control, visually evaluated after 13 to 15 days
Procedure, shortened: as §2

rice (Oryza saliva) [27] = assay: Test B flooded paddy test; conditions: Rate 1000 g/ha, scale of 0 to 100 where 0 is no effect and 100 is complete control, visually evaluated after 13 to 15 days
Procedure, shortened: as §2

[28] = Rate 125 g/ha, scale 0 (no effect) to 100 (complete control)
[29] = Rate 500 g/ha, scale 0 to 100, 0 is no effect, 100 is complete control
[30] = Preemergence, Rate 500 g/ha, scale 0 to 100, 0 no effect, 100 complete control
[31] = preemergence, Rate 125 g/ha, scale of 0 to 100 where 0 is no effect and 100 is complete control, 13 to 15 days

COc1ccn(C2CCN(c3cccc(C(F)(F)F)c3)C2=O)n1 (stereo not shown) [Compound 60]
Plant response rating, Barnyardgrass [1, 28]: 0 | Plant response rating, Barnyardgrass [1, 29]: 0 | Plant response rating, Crabgrass [2, 28]: 0 | Plant response rating, Crabgrass [2, 29]: 0 | Plant response rating, Blackgrass [3, 28]: 0 | Plant response rating, Blackgrass [3, 29]: 0 | Plant response rating, Morningglory [4, 28]: 0 | Plant response rating, Morningglory [4, 29]: 0 | Plant response rating, Foxtail, Giant [5, 28]: 0 | Plant response rating, Foxtail, Giant [5, 29]: 0 | Plant response rating, Velvetleaf [6, 28]: 0 | Plant response rating, Velvetleaf [6, 29]: 0 | Plant response rating, Surinam grass [7, 28]: 0 | Plant response rating, Surinam grass [7, 29]: 0 | Plant response rating, Pigweed [8, 28]: 0 | Plant response rating, Pigweed [8, 29]: 0 | Plant response rating, Lambsquarters [9, 28]: 0 | Plant response rating, Lambsquarters [9, 29]: 0 | Plant response rating, Corn (corn (Zea mays) [10]; [28]): 0 | Plant response rating, Corn (corn (Zea mays) [10]; [29]): 0 | Plant response rating, Wild Oat (wild oat (Avena fatua); [28]): 0 | Plant response rating, Wild Oat (wild oat (Avena fatua); [29]): 0 | Plant response rating, Wheat [11, 28]: 0 | Plant response rating, Wheat [11, 29]: 0 | Plant response rating, Cocklebur [12, 28]: 0 | Plant response rating, Cocklebur [12, 29]: 0 | Plant response rating, Barnyardgrass [13, 30]: 0 | Plant response rating, Barnyardgrass [13, 31]: 0 | Plant response rating, Crabgrass [14, 30]: 0 | Plant response rating, Morningglory [15, 30]: 0 | Plant response rating, Morningglory [15, 31]: 0 | Plant response rating, Foxtail, Giant [16, 30]: 0 | Plant response rating, Foxtail, Giant [16, 31]: 0 | Plant response rating, Velvetleaf [17, 30]: 0 | Plant response rating, Velvetleaf [17, 31]: 0 | Plant response rating, Surinam grass [18, 30]: 0 | Plant response rating, Surinam grass [18, 31]: 0 | Plant response rating, Rice (rice (Oryza saliva) [19]; [30]): 0 | Plant response rating, Rice (rice (Oryza saliva) [19]; [31]): 0 | Plant response rating, Pigweed [20, 30]: 100 | Plant response rating, Pigweed [20, 31]: 0 | Plant response rating, Lambsquarters [21, 30]: 0 | Plant response rating, Lambsquarters [21, 31]: 0 | Plant response rating, Corn (corn (Zea mays) [22]; [30]): 0 | Plant response rating, Corn (corn (Zea mays) [22]; [31]): 0 | Plant response rating, Cocklebur [23, 30]: 0 | Plant response rating, Cocklebur [23, 31]: 0 | Plant response rating, Barnyardgrass [24]: 0 | Plant response rating, Ducksalad [25]: 50 | Plant response rating, Flatsedge [26]: 0 | Plant response rating, Rice (rice (Oryza saliva) [27]): 0

CC(C)(C)c1ccn(C2CCN(c3cccc(OC(=O)C(F)(F)F)c3)C2=O)n1 (stereo not shown) [Compound 94]
Plant response rating, Barnyardgrass [1, 28]: 0 | Plant response rating, Barnyardgrass [1, 29]: 0 | Plant response rating, Crabgrass [2, 28]: 0 | Plant response rating, Crabgrass [2, 29]: 0 | Plant response rating, Blackgrass [3, 28]: 0 | Plant response rating, Blackgrass [3, 29]: 0 | Plant response rating, Morningglory [4, 29]: 0 | Plant response rating, Foxtail, Giant [5, 28]: 0 | Plant response rating, Foxtail, Giant [5, 29]: 0 | Plant response rating, Velvetleaf [6, 29]: 0 | Plant response rating, Surinam grass [7, 28]: 0 | Plant response rating, Surinam grass [7, 29]: 0 | Plant response rating, Pigweed [8, 29]: 10 | Plant response rating, Lambsquarters [9, 29]: 20 | Plant response rating, Corn (corn (Zea mays) [10]; [28]): 0 | Plant response rating, Corn (corn (Zea mays) [10]; [29]): 0 | Plant response rating, Wild Oat (wild oat (Avena fatua); [29]): 0 | Plant response rating, Wheat [11, 29]: 0 | Plant response rating, Cocklebur [12, 28]: 0 | Plant response rating, Cocklebur [12, 29]: 0 | Plant response rating, Barnyardgrass [13, 30]: 0 | Plant response rating, Barnyardgrass [13, 31]: 0 | Plant response rating, Crabgrass [14, 30]: 30 | Plant response rating, Crabgrass [14, 31]: 0 | Plant response rating, Morningglory [15, 30]: 0 | Plant response rating, Morningglory [15, 31]: 0 | Plant response rating, Foxtail, Giant [16, 30]: 0 | Plant response rating, Foxtail, Giant [16, 31]: 0 | Plant response rating, Velvetleaf [17, 30]: 70 | Plant response rating, Velvetleaf [17, 31]: 0 | Plant response rating, Surinam grass [18, 30]: 0 | Plant response rating, Surinam grass [18, 31]: 0 | Plant response rating, Rice (rice (Oryza saliva) [19]; [30]): 20 | Plant response rating, Rice (rice (Oryza saliva) [19]; [31]): 0 | Plant response rating, Pigweed [20, 30]: 0 | Plant response rating, Pigweed [20, 31]: 0 | Plant response rating, Lambsquarters [21, 30]: 100 | Plant response rating, Lambsquarters [21, 31]: 0 | Plant response rating, Corn (corn (Zea mays) [22]; [30]): 0 | Plant response rating, Corn (corn (Zea mays) [22]; [31]): 0 | Plant response rating, Cocklebur [23, 30]: 0 | Plant response rating, Cocklebur [23, 31]: 0 | Plant response rating, Barnyardgrass [24]: 0 | Plant response rating, Ducksalad [25]: 0 | Plant response rating, Flatsedge [26]: 0 | Plant response rating, Rice (rice (Oryza saliva) [27]): 0
